From patent US20250295639A1, “METHODS FOR TREATING HEART DISEASES” (Cytokinetics, Incorporated, priority 2024, published 2025)

How the values were obtained:
Type in all cases: in vivo, human
[1] = test system: patients with symptomatic oHCM; test: SEQUOIA-HCM: eligibility for septal reduction therapy (SRT); conditions: aficamten (32 eligible at entry)
Source text: Eligibility for Septal Reduction Therapy (SRT). At study entry, 61 (22%) patients with oHCM were eligible for SRT based on guideline criteria (LV outflow gradient ≥50 mmHg at rest or Valsalva and NYHA class III or IV), of which 32 (23%) were assigned to aficamten and 29 (20%) to placebo. By week 12, 32 (100%) patients treated with aficamten were no longer guideline-eligible for SRT vs. 7 (24%) patients treated with placebo (P<0.001). At week 24, 28 (88%) patients treated with aficamten were no longer guideline-eligible for SRT vs. 15 (52%) on placebo (P<0.002).

[2] = test system: patients with obstructive hypertrophic cardiomyopathy (oHCM); test: FOREST-HCM: standard of care (SoC) medications withdrawal in oHCM patients treated with aficamten
Source text: Safety and Outcomes of Standard of Care Medications Withdrawal in Patients with Obstructive Hypertrophic Cardiomyopathy (oHCM) Treated with Aficamten in FOREST-HCM Trial. Standard of care (SoC) medications for the treatment of obstructive hypertrophic cardiomyopathy (oHCM) are currently recommended as first-line therapy. There are, however, off-target side-effects that often render them poorly tolerated. Patients were classified as receiving SoC therapy (both first line and second line) if treated with at least one drug (beta-blocker [BB], non-dihydropyridine calcium channel blocker [CCB], and/or disopyramide). Patients were eligible for protocol-guided SoC withdrawal after receiving a stable dose of aficamten for ≥4-weeks and after Week 12 of the study, at the discretion of the site investigator. Successful SoC withdrawal was defined as at least a 50% dose-reduction in one medication relative to baseline. All patients were also required to have ≥1 clinical, echocardiographic and biomarker assessment after attempted withdrawal. Adverse events (AE) were prospectively evaluated 1-2 weeks after any SoC withdrawal. […] Independent of attempted withdrawal, patients maintained relief of obstruction, improvement in symptoms and health status, and low cardiac biomarkers (Table 1). In the group with successful SoC withdrawal, no clinically significant differences were observed between pre and post SoC withdrawal attempt (Table 1). Overall, there was a modest reduction in left ventricular ejection fraction (LVEF) of −3.5%±6.0 from baseline, also with no differences between groups.

[3] = test system: patients with symptomatic oHCM; test: SEQUOIA-HCM: cardiac biomarkers NT-proBNP and hs-cTnI
Source text: A further exploratory objective of this trial was to evaluate the effect of aficamten on biomarker levels, as determined by changes from baseline values in NT-pro-BNP, hs-cardiac-TnI and other biomarkers through Week 24. Cardiac biomarkers. Aficamten treatment led to an immediate and significant reduction in both NT-proBNP and hs-cTnI, with substantial lowering of both biomarkers by week 2. […] Biomarker lowering persisted to week 24 when the relative reduction from baseline was-80% (95% CI-83%, −77%, p<0.001) in NT-proBNP and −43% (−49%, […], p<0.001) in hs-cTnI. […] Serum levels of NT-proBNP decreased from baseline to week 24 from 735 (604, 894) ng/L to 143 (120, 171) ng/L in patients receiving aficamten and remained unchanged from 710 (587, 859) ng/L to 717 (596, 863) ng/L in those receiving placebo, while hs-troponin decreased from 17.1 (14.1, 20.8) ng/L to 9.5 (8.0, 11.3) ng/L with aficamten and remained unchanged from 16.6 (13.3, 20.7) to 16.5 (13.7, 19.9) ng/L in placebo (P<0.001 for both comparisons compared to placebo). […] In contrast hs-cTnI reduction reflected 3% (−18%, 30%) of aficamten's effect on pVO2.

[4] = No SoC Withdrawal Group, Post (Week 24)
[5] = No SoC Withdrawal Group, Pre (Week 12)
[6] = No SoC Withdrawal Group, Week 24 vs Week 12
[7] = Successful SoC Withdrawal Group, Post SoC withdrawal
[8] = Successful SoC Withdrawal Group, Pre SoC withdrawal
[9] = Successful SoC Withdrawal Group, post vs pre
[10] = of the 68 who underwent withdrawal attempt
[11] = successful SoC withdrawal cohort vs no SoC withdrawal

## CCc1nc(-c2ccc3c(c2)CC[C@H]3NC(=O)c2cnn(C)c2)no1 [aficamten, (R)—N-(5-(5-ethyl-1,2,4-oxadiazol-3-yl)-2,3-dihydro-1H-inden-1-yl)-1-methyl-1H-pyrazole-4-carboxamide]
[1]; week 12
  SRT-eligible patients no longer guideline-eligible for SRT: 100%
[1]; week 24
  SRT-eligible patients no longer guideline-eligible for SRT: 88%
[2]; [4]
  KCCQ CSS, Mean (SD): 88.5 (12.55)
  LVEF, Mean (SD): 64.4 (5.3) %
  LVOT-G, Rest, Mean (SD): 14.0 (12.6) mmHg
  LVOT-G, Valsalva, Mean (SD): 32.2 (25.2) mmHg
  NT-proBNP, median: 158.5 pg/mL
  NYHA class I: I: 35 (54.7%) n(%)
  NYHA class III: III: 2 (3.1%) n(%)
  NYHA class IV: IV: 0 n(%)
  hs-cardiac-TnI, median: 6.3 ng/L
[2]; [5]
  KCCQ CSS, Mean (SD): 87.3 (13.12)
  LVEF, Mean (SD): 65.3 (4.9) %
  LVOT-G, Rest, Mean (SD): 19.5 (17.6) mmHg
  LVOT-G, Valsalva, Mean (SD): 42.2 (26.0) mmHg
  NT-proBNP, median: 191.5 pg/mL
  NYHA class I: I: 34 (53.19%) n(%)
  NYHA class III: III: 3 (4,7%) n(%)
  NYHA class IV: IV: 0 n(%)
  hs-cardiac-TnI, median: 7.6 ng/L
[2]; [6]
  KCCQ CSS, change: 1.2
  LVEF, change: −0.9%
  LVOT-G, Rest, change: −5.5 mmHg
  LVOT-G, Valsalva, change: −10.0 mmHg
  NT-proBNP, change: -3.0 pg/mL
  hs-cardiac-TnI, change: -0.5 ng/L
[2]; [7]
  KCCQ CSS, Mean (SD): 83.8 (18.18)
  LVOT-G, Rest, Mean (SD): 16.6 (13.7) mmHg
  LVOT-G, Valsalva, Mean (SD): 35.6 (29.1) mmHg
  NT-proBNP, median: 250.0 pg/mL
  NYHA class I: I: 26 (46.4%) n(%)
  NYHA class II: II: 26 (46,4%) n(%)
  NYHA class III: III: 4 (7.1%) n(%)
  NYHA class IV: IV: 0 n(%)
  hs-cardiac-TaI, median: 5.8 ng/L
[2]; Successful SoC Withdrawal Group, Post SoC withdrawal, site read echo
  LVEF, Mean (SD): 65.5 (6.4) %
[2]; [8]
  KCCQ CSS, Mean (SD): 80.2 (17.20)
  LVOT-G, Rest, Mean (SD): 13.2 (11.0) mmHg
  LVOT-G, Valsalva, Mean (SD): 27.9 (22.4) mmHg
  NT-proBNP, median: 330.0 pg/mL
  NYHA class I: I: 23 (41.1%) n(%)
  NYHA class II: II: 25(44.6%) n(%)
  NYHA class III: III: 8(14.3%) n(%)
  NYHA class IV: IV: 0 n(%)
  hs-cardiac-TaI, median: 5.8 ng/L
[2]; Successful SoC Withdrawal Group, Pre SoC withdrawal, site read echo
  LVEF, Mean (SD): 64.8 (5.8) %
[2]; [9]
  KCCQ CSS, change (95% CI): 3.5 (−0.5, 7.5)
  LVEF, change: 0.6%
  LVOT-G, Rest, change: 3.4 mmHg
  LVOT-G, Valsalva, change (95% CI): 7.7 (0.8, 14.6), mmHg
  NT-proBNP, change: -68.0 pg/mL
  hs-cardiac-TaI, change: 0.0 ng/L
[2]; human, in vivo
  monotherapy patients who later restarted a SoC medication: 13.2%
  serious AEs attributed to SoC withdrawal: no serious AEs
[2]; [10]
  patients achieving aficamten monotherapy: 44.1%
  patients achieving successful SoC withdrawal (at least 50% dose-reduction in one medication): 92.6%
  patients completely discontinuing at least one SoC medication: 61.8%
[2]; overall
  reduction in LVEF from baseline (mean±SD): −3.5%
[2]; [11]
  KCCQ CSS, Δ change between cohorts at Week 24: 2.3
  LVEF, Δ change between cohorts at Week 24: 1.5%
  LVOT-G, Rest, Δ change between cohorts at Week 24: 8.9 mmHg
  LVOT-G, Valsalva, Δ change between cohorts at Week 24: 17.7 mmHg
  NT-proBNP, Δ change between cohorts at Week 24: -65.0 pg/mL
  hs-cardiac-TnI, Δ change between cohorts at Week 24: 0.5 ng/L
[3]; Week 24
  hs-cTnI relative reduction from baseline: −43%
[3]; aficamten group, week 24
  patients with 50% relative reduction in hs-troponin: 31%
  patients with ≥50% reduction in NT-proBNP relative to baseline: 84%
[3]; aficamten, week 24, baseline 17.1 (14.1, 20.8)
  hs-troponin level: 9.5 (8.0, 11.3) ng/L
[3]; aficamten, week 24, baseline 735 (604, 894)
  serum level of NT-proBNP: 143 (120, 171) ng/L
[3]; after the treatment period
  NT-proBNP and hs-cTnI concentrations after cessation of aficamten: returning to baseline values
[3]; week 8
  NT-proBNP reduction: 79%
  hs-cTnI reduction: 41%
